# Test results taken from PubChem BioAssay AID1963986 (Molecular Pharmacology Branch, DTP, NCI, 2024).
# Test system: 171881-019-R-J1-PDC tumor spheroid viability
# Assay: Anticancer human tumor 171881-019-R-J1-PDC patient-derived invasive breast carcinoma cell line growth inhibition [PI3K]
# Conditions: spheroids with HUVEC and MSC; for IC50: curve of first compound; for viability, T/C: stronger effect = lower value
# From the text: Combinatorial screen of targeted agents with the PI3K inhibitors inavolisib, alpelisib, duvelisib, and copanlisib in multi-cell type tumor spheroids
# A high-throughput screen of multi-cell type tumor spheroids was designed to identify active combinations of targeted small molecules and PI3K pathway inhibitors. Complex spheroids include a stromal component modeled by human endothelial cells (HUVEC) and fibroblasts modeled by human mesenchymal stem cells (MSCs). The concentration ranges selected for each drug and investigational agent were based upon clinically achievable concentrations if the clinical Cmax of the agent was known.
# Compounds. The drugs and investigational agents: inavolisib (NSC800729), alpelisib (NSC765974), duvelisib (NSC772469), copanlisib (NSC816437), ipatasertib (NSC767898), afuresertib (NSC778305), talazoparib (NSC767125), sapanisertib (NSC764658), selumetinib (NSC741078), tovorafenib (DAY101, NSC766906), vemurafenib (NSC761431), ravoxertinib (NSC781343), sotorasib (NSC818433), MRTX1133 (NSC 836407), abemaciclib (NSC 768073), palbociclib (NSC758247), venetoclax (NSC 766270), SY5609 (NSC837396), enzalutamide (NSC755605), and darolutamide (NSC825331), were obtained from the National Cancer Institute (NCI) Developmental Therapeutics Program Chemical Repository. The FDA-approved anticancer drug set is available from the NCI Developmental Therapeutics Program. […] The stock solutions were prepared in dimethyl sulfoxide (DMSO, Sigma-Aldrich, St. Louis, MO, cat. D2650) at 800-fold the tested concentration and stored at -70 degrees C prior to their use. All drugs and investigational agents were tested over a range starting from a high concentration at or near the clinical Cmax and decreasing in half-log increments. If the clinical Cmax for an agent had not been determined, the highest concentration tested was 10 microM.
# Cell Culture. All cells were maintained in an incubator at 37 degrees C and 5% CO2 with 95% humidity. The PDC lines were cultured according to standard operating procedures established by the NCI PDMR (https://pdmr.cancer.gov/sops/default.htm). All PDCs were thawed and cultured in Matrigel-coated flasks prepared with a working solution of 1X Ham's F-12 nutrient mix, without supplementation (Invitrogen, Waltham, MA, cat. 11765054), 100 U/mL penicillin-streptomycin (Invitrogen, cat. 15140122), and 2.5% Matrigel (Corning Inc., Corning, NY, cat. 354248) for the first three passages. The 354836-022-R-J1-PDC, 475296-252-R-J1-PDC, and 997726-040-R-J2-PDC lines were cultured in 6A media, which includes advanced DMEM/F-12 (Thermo Fisher Scientific, cat. 12634028), 10 mM HEPES (Thermo Fisher Scientific, cat. 15630080), 1X GlutaMAX supplement (Thermo Fisher Scientific, cat. 35050061), 0.1 mg/mL primocin (InvivoGen, San Diego, CA, cat. ant-pm-2), 10% defined fetal bovine serum, heat inactivated (HyClone Laboratories Inc., Logan, UT, cat. SH30070.03HI), 50% L-WRN conditioned media (ATCC, cat. CRL-3276), 1.25 mM N-Acetyl-L-cysteine (Sigma-Aldrich, cat. A9165), 10 mM nicotinamide (Sigma-Aldrich, cat. N0636), 1X B-27 supplement (Thermo Fisher Scientific, cat. 17504044), 1X N-2 supplement (Thermo Fisher Scientific, cat. 17502048), and 10 microM Y-27632 dihydrochloride (Tocris Bioscience, Bristol, United Kingdom, cat. 1254). The 624824-186-R-J2-PDC line was cultured in 6C/Colon 1B media, which includes all 6A media components plus 50 ng/mL human EGF recombinant protein (Thermo Fisher Scientific, cat. PHG0311). […]
# [1] = second compound 0.00316 µM, first compound 0.0316 µM
# [2] = second compound 0.00316 µM, first compound 0.1 µM
# [3] = second compound 0.00316 µM, first compound 0.316 µM
# [4] = second compound 0.00316 µM, first compound 1 µM
# [5] = second compound 0.00316 µM, first compound 3.16 µM
# [6] = second compound 0.00316 µM, first compound 10 µM
# [7] = second compound 0.01 µM, first compound 0.0316 µM
# [8] = second compound 0.01 µM, first compound 0.1 µM
# [9] = second compound 0.01 µM, first compound 0.316 µM
# [10] = second compound 0.01 µM, first compound 1 µM
# [11] = second compound 0.01 µM, first compound 3.16 µM
# [12] = second compound 0.01 µM, first compound 10 µM
# [13] = second compound 0.0316 µM, first compound 0.0316 µM
# [14] = second compound 0.0316 µM, first compound 0.1 µM
# [15] = second compound 0.0316 µM, first compound 0.316 µM
# [16] = second compound 0.0316 µM, first compound 1 µM
# [17] = second compound 0.0316 µM, first compound 3.16 µM
# [18] = second compound 0.0316 µM, first compound 10 µM
# [19] = second compound 0.1 µM, first compound 0.0316 µM
# [20] = second compound 0.1 µM, first compound 0.1 µM
# [21] = second compound 0.1 µM, first compound 0.316 µM
# [22] = second compound 0.1 µM, first compound 1 µM
# [23] = second compound 0.1 µM, first compound 3.16 µM
# [24] = second compound 0.1 µM, first compound 10 µM
# [25] = second compound 0.316 µM, first compound 0.0316 µM
# [26] = second compound 0.316 µM, first compound 0.1 µM
# [27] = second compound 0.316 µM, first compound 0.316 µM
# [28] = second compound 0.316 µM, first compound 1 µM
# [29] = second compound 0.316 µM, first compound 3.16 µM
# [30] = second compound 0.316 µM, first compound 10 µM
# [31] = second compound 1 µM, first compound 0.0316 µM
# [32] = second compound 1 µM, first compound 0.1 µM
# [33] = second compound 1 µM, first compound 0.316 µM
# [34] = second compound 1 µM, first compound 1 µM
# [35] = second compound 1 µM, first compound 3.16 µM
# [36] = second compound 1 µM, first compound 10 µM
# 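Also: spheroids exposed to compound for 7 days before viability read.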
# 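For viability, T/C in this document: 100% = DMSO vehicle-treated spheroids.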
compound,measurement,setting,value
CC1(C)CCC(CN2CCN(c3ccc(C(=O)NS(=O)(=O)c4ccc(NCC5CCOCC5)c([N+](=O)[O-])c4)c(Oc4cnc5[nH]ccc5c4)c3)CC2)=C(c2ccc(Cl)cc2)C1 + CC(Nc1ccc2c(c1)OCCn1cc(N3C(=O)OCC3C(F)F)nc1-2)C(N)=O,IC50,second compound 0.00316 µM,3730 nM
same,IC50,second compound 0.01 µM,2720 nM
same,IC50,second compound 0.0316 µM,1590 nM
same,IC50,second compound 0.1 µM,< 31.6 nM
same,IC50,second compound 0.316 µM,< 31.6 nM
same,IC50,second compound 1 µM,< 31.6 nM
same,"viability, T/C",[1],83%
same,"viability, T/C",[2],73.7%
same,"viability, T/C",[3],91.5%
same,"viability, T/C",[4],88.1%
same,"viability, T/C",[5],55.9%
same,"viability, T/C",[6],15%
same,"viability, T/C",[7],79.2%
same,"viability, T/C",[8],87.3%
same,"viability, T/C",[9],76.8%
same,"viability, T/C",[10],72.5%
same,"viability, T/C",[11],46.5%
same,"viability, T/C",[12],13.9%
same,"viability, T/C",[13],55.9%
same,"viability, T/C",[14],56.8%
same,"viability, T/C",[15],61.6%
same,"viability, T/C",[16],55.3%
same,"viability, T/C",[17],41.2%
same,"viability, T/C",[18],10.3%
same,"viability, T/C",[19],41.6%
same,"viability, T/C",[20],41.2%
same,"viability, T/C",[21],40.6%
same,"viability, T/C",[22],43.4%
same,"viability, T/C",[23],36.5%
same,"viability, T/C",[24],7.86%
same,"viability, T/C",[25],28.6%
same,"viability, T/C",[26],27.1%
same,"viability, T/C",[27],28.5%
same,"viability, T/C",[28],28.3%
same,"viability, T/C",[29],29.5%
same,"viability, T/C",[30],5%
same,"viability, T/C",[31],20.9%
same,"viability, T/C",[32],20.9%
same,"viability, T/C",[33],22%
same,"viability, T/C",[34],23.4%
same,"viability, T/C",[35],22%
same,"viability, T/C",[36],6.08%
C[C@@H](NC(=O)c1ncnc(N)c1Cl)c1ncc(C(=O)Nc2cc(C(F)(F)F)c(Cl)cn2)s1 + CC(Nc1ccc2c(c1)OCCn1cc(N3C(=O)OCC3C(F)F)nc1-2)C(N)=O,IC50,second compound 0.00316 µM,5950 nM
same,IC50,second compound 0.01 µM,2620 nM
same,IC50,second compound 0.0316 µM,399 nM
same,IC50,second compound 0.1 µM,< 31.6 nM
same,IC50,second compound 0.316 µM,< 31.6 nM
same,IC50,second compound 1 µM,< 31.6 nM
same,"viability, T/C",[1],71.3%
same,"viability, T/C",[2],88.5%
same,"viability, T/C",[3],84.2%
same,"viability, T/C",[4],80.4%
same,"viability, T/C",[5],63.7%
same,"viability, T/C",[6],38.8%
same,"viability, T/C",[7],80.3%
same,"viability, T/C",[8],78.5%
same,"viability, T/C",[9],65.8%
same,"viability, T/C",[10],70.3%
same,"viability, T/C",[11],44.4%
same,"viability, T/C",[12],27.4%
same,"viability, T/C",[13],51.4%
same,"viability, T/C",[14],53.9%
same,"viability, T/C",[15],49.5%
same,"viability, T/C",[16],46.5%
same,"viability, T/C",[17],31.1%
same,"viability, T/C",[18],17.1%
same,"viability, T/C",[19],38.9%
same,"viability, T/C",[20],35.7%
same,"viability, T/C",[21],33.8%
same,"viability, T/C",[22],31.6%
same,"viability, T/C",[23],20.1%
same,"viability, T/C",[24],10.7%
same,"viability, T/C",[25],27%
same,"viability, T/C",[26],24.5%
same,"viability, T/C",[27],24.9%
same,"viability, T/C",[28],23%
same,"viability, T/C",[29],13.5%
same,"viability, T/C",[30],6.3%
same,"viability, T/C",[31],20.7%
same,"viability, T/C",[32],20.9%
same,"viability, T/C",[33],19.3%
same,"viability, T/C",[34],16.4%
same,"viability, T/C",[35],9.28%
same,"viability, T/C",[36],3.79%
